Data taken from US6455714B1, “Labeled vitamin D compounds and the use thereof” (A & D BioScience, Inc., priority 1995, dated 2002).
Like-named read-outs stand apart in the source and are kept apart here.

Assays:
[1] = molecular target: T1, DBP (Homo sapiens, UniProt P02774); assay: ELISA to demonstrate that compound C can be competed out with 25-OH-D3; assay type: binding; settings: 2 μg 25-OH-D3 added with C (30, 60, 120 ng); triplicate
T1 construct: purchased Calbiochem, San Diego, Calif
T1 sequence (P02774 17-474): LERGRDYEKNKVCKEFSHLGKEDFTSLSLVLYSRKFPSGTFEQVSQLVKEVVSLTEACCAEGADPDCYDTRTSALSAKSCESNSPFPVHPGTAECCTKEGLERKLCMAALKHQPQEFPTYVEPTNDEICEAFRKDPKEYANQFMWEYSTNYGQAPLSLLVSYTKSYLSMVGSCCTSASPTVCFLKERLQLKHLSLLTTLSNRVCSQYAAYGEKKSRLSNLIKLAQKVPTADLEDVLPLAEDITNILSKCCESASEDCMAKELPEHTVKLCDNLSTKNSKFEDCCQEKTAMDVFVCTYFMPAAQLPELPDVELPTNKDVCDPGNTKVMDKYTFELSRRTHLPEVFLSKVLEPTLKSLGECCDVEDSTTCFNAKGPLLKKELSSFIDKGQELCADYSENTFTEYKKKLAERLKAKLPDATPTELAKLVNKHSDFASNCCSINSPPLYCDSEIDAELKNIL
Protocol: In the next experiment, it was determined whether it would be possible to displace compound C, bound to DBP (which is attached to an ELISA plate), with a known concentration of 25-OH-D3. In a real sample, one will be measuring the amount of 25-OH-D and not that of compound C.
Procedure: same as before, except either C, or C and 2 μg of 25-OH-D3 were added to each plate. Each concentration (point) was done in triplicate. The blank contained no 25-OH-D3 or C.
Furthermore, the amount of compound C is […] to the concentration of added 25-OH-D3.

[2] = molecular target: T2, Human Vitamin D-binding Protein (hDBP) (Homo sapiens, UniProt P02774)
T2 sequence (P02774 17-474): T1 sequence (P02774 17-474)
Protocol: Competitive Radioligand Binding Assays of Aanalogs (C) and (F) with Human Vitamin D-binding Protein (hDBP)
These assays were carried out to determine the viability of these synthetic analogs to serve as substrates for hDBP.

[3] = molecular target: T1, DBP; assay: Checkerboard titration (ELISA) of DBP and compound C to obtain a colorimetric signal; assay type: binding; settings: with minimum 6.25 ng DBP; color determined visually
Protocol: The method involves attachment of DBP to an ELISA plate followed by the addition of a known quantity of 25-OH-D3-biotin conjugate (compound C). […] Excess amount of C is washed off, and an excess of avidin is added which gets bound to biotin attached to 25-OH-D3. The plate is then incubated in sequence with anti-avidin antibody, a secondary antibody coupled to horseradish peroxidase (HRP), and ABTS (2,2′-azino-di-(3-ethylbenzthiazoline)sulfonate, the substrate that produces a […] color which may be monitored spectrophotometrically or visually. The intensity (absorbance) of the color is directly proportional to the concentration of compound C. In the first experiment, the optimal concentrations of DBP and compound C to develop color were determined (visually). In this experiment, each sample of DBP was tested against each amount of compound C.
A. Determination of the Optimal Amount of DBP and Compound (C) in a Checkerboard Titration (ELISA) to obtain a Colorimetric Signal
Add different amounts of purified hDBP (From Calbiochem, San Diego, Calif., in 100 mM Na2CO3 buffer, pH 8.4) to wells of an ELISA plate
Block excess sites with BSA (1 mg/ml, 300 μl)
↓ wash with PBS containing 0.05% TWEEN 20
Add different amounts of C in EtOH
Wash with PBS containing 0.05% TWEEN 20 (Biorad, Richmond, Calif.) […]
Color development detected visually or spectrophotometrically.

C=C1CC[C@H](O)C/C1=C/C=C1\CCC[C@]2(C)[C@@H]([C@H](C)CCCC(C)(C)O)CC[C@@H]12 [Compound 25-OH-D3, 25-hydroxyvitamin D3]
displacement of compound C bound to DBP on an ELISA plate (color development) [1]: capable of displacing compound C bound to DBP

C=C1CC[C@H](OCCCNC(=O)CCCCCNC(=O)CCCC[C@@H]2SC[C@@H]3NC(=O)N[C@@H]32)C/C1=C/C=C1\CCC[C@]2(C)[C@@H]([C@H](C)CCCC(C)(C)O)CC[C@@H]12 [C, Conjugate of 25-OH-D3-3-Aminopropyl Ether and Biotin-X-NHS]
ability to replace 25-OH-D3 for DBP binding [2]: can replace 25-OH-D3 for DBP binding | times less efficient than 25-OH-D3 in displacing 3H-25-OH-D3 bound to hDBP [2]: ~11 times | minimum amount required to obtain yellow color [3]: 30 ng

Biotin conjugate of 25-OH-D3-3-aminopropyl-3-(6-amino) hexanoic acid
ability to replace 25-OH-D3 for DBP binding ([2]; FIG. 1): can replace 25-OH-D3 for DBP binding
